From ChEMBL document CHEMBL1201862, “PubChem BioAssay data set” (2004)
Activity calls are given as the source filed them.

Legend:
Bcl-2-like protein 10 = molecular target: T1, Bcl-2-like protein 10 (Homo sapiens, UniProt Q9HD36); test: Bcl-B/TR3 peptide binding disruption – biochemical, fluorescence polarization, FITC-TR3 peptide, selectivity assay for Bfl-1 inhibitor project, primary screen (AID 748);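 also: fluorescence polarization from a fluorescein-labelled TR3 peptide binding purified Bcl-B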
T1 sequence (Q9HD36 whole entry): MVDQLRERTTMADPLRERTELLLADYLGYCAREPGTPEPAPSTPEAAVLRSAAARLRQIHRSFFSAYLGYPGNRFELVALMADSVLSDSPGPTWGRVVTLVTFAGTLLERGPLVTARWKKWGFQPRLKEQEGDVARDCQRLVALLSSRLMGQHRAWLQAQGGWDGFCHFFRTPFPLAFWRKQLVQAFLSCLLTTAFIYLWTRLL

Beta-galactosidase = Beta-galactosidase (Escherichia coli, UniProt Q8VNN2); test: detection-enzyme interference by beta-gal modulators – biochemical, E. coli enzyme, set 3, artefact control for CCR6 antagonist project, dose response (AID 504712); type: functional
[1] = test system: Streptococcus sp. 'group A'; test: Streptococcus pyogenes SK(-)GAS viability under kanamycin – luminescence, BacTiterGlo, confirmation, counter-screen for streptokinase expression inhibitor project, dose response (AID 1900); type: functional, organism-based
Streptokinase A = molecular target: T2, Streptokinase A (Streptococcus pyogenes serotype M1, UniProt P10520); test: viability-normalized secreted streptokinase activity reduction – plasminogen activation absorbance, OD405, dose response (AID 1914); type: functional, Streptococcus pyogenes M1 GAS;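 also: secreted streptokinase activity via plasminogen activation per viability signal from cell pellet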
T2 sequence (P10520 whole entry): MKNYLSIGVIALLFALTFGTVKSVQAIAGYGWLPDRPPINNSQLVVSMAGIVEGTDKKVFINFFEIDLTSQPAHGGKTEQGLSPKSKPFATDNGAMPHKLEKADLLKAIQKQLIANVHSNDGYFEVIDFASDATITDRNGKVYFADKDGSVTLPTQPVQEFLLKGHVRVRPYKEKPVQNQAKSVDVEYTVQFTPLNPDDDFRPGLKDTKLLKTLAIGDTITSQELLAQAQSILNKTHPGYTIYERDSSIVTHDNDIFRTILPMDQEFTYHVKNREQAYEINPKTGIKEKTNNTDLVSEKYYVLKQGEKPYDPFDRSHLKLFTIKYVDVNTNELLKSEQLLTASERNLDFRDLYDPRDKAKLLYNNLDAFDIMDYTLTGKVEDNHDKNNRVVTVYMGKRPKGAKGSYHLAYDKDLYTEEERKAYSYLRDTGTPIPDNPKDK

Streptococcus = test: GAS UMAA2166 growth inhibition – luminescence, BacTiterGlo, counter-screen for streptokinase expression inhibitor project, dose response (AID 1915); type: functional, organism-based;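 also: potency for reduction of bacterial viability or growth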
cells = type: functional
[2] = Vero E6 cell cytotoxicity, dose response, cytotoxicity control for non-replicating M. tuberculosis project, secondary assay (AID 492998); type: functional, VeroE6; settings: Vero C1008
[3] = THP-1 cell cytotoxicity, dose response, cytotoxicity control for non-replicating M. tuberculosis project (AID 489025); type: functional
[4] = HepG2 cell cytotoxicity, dose response, cytotoxicity control for non-replicating M. tuberculosis project (AID 489018); type: functional; settings: Mycobacterium tuberculosis
[5] = molecular target: T3, Short transient receptor potential channel 4 (Mus musculus, UniProt Q9QUQ5); test: block of DAMGO-driven TRPC4 calcium entry – cell-based, HEK293 TRPC4/mu-opioid, Fluo-4 calcium, dose response (AID 434942); type: functional;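 also: potency of inhibitors blocking the TRPC4 calcium response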
T3 sequence (Q9QUQ5 whole entry): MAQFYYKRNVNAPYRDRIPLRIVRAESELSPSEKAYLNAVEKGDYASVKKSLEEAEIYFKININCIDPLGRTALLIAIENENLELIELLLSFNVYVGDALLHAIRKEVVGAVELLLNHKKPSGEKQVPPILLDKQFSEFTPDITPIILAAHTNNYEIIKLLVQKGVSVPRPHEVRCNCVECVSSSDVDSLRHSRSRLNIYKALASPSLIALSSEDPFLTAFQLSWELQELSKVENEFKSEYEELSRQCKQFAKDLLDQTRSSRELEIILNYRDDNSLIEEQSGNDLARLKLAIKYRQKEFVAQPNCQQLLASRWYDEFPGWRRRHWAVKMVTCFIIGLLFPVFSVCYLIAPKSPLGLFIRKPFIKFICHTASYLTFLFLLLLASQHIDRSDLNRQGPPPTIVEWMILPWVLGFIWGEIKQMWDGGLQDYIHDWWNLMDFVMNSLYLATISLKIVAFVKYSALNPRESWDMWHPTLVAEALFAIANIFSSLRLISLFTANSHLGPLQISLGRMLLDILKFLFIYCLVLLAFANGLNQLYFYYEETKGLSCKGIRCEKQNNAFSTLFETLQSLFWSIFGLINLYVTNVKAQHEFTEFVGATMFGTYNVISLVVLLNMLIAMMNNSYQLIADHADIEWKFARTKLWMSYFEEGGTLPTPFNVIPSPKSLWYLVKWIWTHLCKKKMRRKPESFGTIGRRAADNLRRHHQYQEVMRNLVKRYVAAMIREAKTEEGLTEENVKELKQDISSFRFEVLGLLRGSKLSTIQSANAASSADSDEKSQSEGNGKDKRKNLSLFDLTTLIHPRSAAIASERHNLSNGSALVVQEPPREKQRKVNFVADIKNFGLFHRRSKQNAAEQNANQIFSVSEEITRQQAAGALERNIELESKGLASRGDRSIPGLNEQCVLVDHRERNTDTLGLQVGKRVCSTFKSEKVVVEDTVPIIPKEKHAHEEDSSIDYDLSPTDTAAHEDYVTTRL

[6] = NIH3T3 cell viability loss – ATP luminescence, mouse fibroblasts, counter-screen, dose response (AID 2010); type: functional, cell-based;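 also: cells exposed to compound for about 90 hours before reading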
[7] = Trypanosoma cruzi growth suppression in host cells – NIH3T3 host cells, beta-gal luminescence, confirmation (AID 2044); type: functional, cell-based;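 also: intracellular parasites grown in NIH/3T3 mouse fibroblasts as host cells; luminescent beta-galactosidase reporter signal from transgenic T. cruzi replicating inside host cells; inhibitors lower the luminescence signal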
CAAX prenyl protease 2 = CAAX prenyl protease 2 (Saccharomyces cerevisiae S288c, UniProt Q03530); type: biochemical
Trypsin = Trypsin (Sus scrofa, UniProt P00761); test: trypsin protease activity blockade – biochemical, quenched peptide fluorescence, cherry-pick, selectivity assay for Rce1 protease inhibitor project, dose response (AID 488789)
Cytochrome P450 2C9 = Cytochrome P450 2C9 (Homo sapiens, UniProt P11712)
[8] = molecular target: T3, Short transient receptor potential channel 4; test: calcium entry via TRPC4 opening agents – cell-based, HEK293 TRPC4/mu-opioid, Fluo-4 calcium, dose response (AID 434937); type: functional
[9] = Luminescence Cell-Based Dose Response HTS to Identify Activators of Luciferase Translation or Activity in H4 […] Cells. [Related pubchem assays: 1829 (Project Summary), 1814 (Primary HTS)]; type: functional
Cytochrome P450 2C19 = Cytochrome P450 2C19 (Homo sapiens, UniProt P33261); test: Cytochrome panel assay with activity outcomes. Panel member name: p450-cyp2c19 Compounds with AC50 equal or less than 10 uM are considered active; type: functional; settings: read-out: AC50
Cytochrome P450 3A4 = Cytochrome P450 3A4 (Homo sapiens, UniProt P08684);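 also: CYP3A4 tested as one member of a cytochrome P450 panel screen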
[10] = Luminescence Cell-Based Dose Confirmation HTS to Identify Activators of 5'UTR Stem-Loop Driven Alpha-Synuclein mRNA Translation in H4 Neuroglioblastoma Cells. [Related pubchem assays: 1829 (Project Summary), 1814 (Primary HTS)]; type: functional
[11] = NIH-3T3 fibroblast cytotoxicity, dose response, cytotoxicity control, cell-based, fluorescence, Alamar Blue, secondary assay (AID 2327); type: functional;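 also: NIH-3T3 mouse fibroblasts cultured with fluconazole at 8 µg/mL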
H4 = test: Luminescence Cell-Based Dose Response HTS to Identify Activators of 5'UTR Stem-Loop Driven Prion Protein mRNA Translation in H4 Neuroglioblastoma Cells. [Related pubchem assays: 1829 (Project Summary), 1814 (Primary HTS)]; type: functional; settings: Homo sapiens

Sequence of Trypsin (P00761 whole entry): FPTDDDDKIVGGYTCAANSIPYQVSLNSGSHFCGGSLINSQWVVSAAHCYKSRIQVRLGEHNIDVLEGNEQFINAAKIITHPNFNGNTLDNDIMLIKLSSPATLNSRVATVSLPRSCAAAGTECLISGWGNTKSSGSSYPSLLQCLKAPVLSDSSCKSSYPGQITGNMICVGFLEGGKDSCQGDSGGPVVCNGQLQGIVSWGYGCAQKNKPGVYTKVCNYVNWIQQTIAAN
Sequence of Beta-galactosidase (Q8VNN2 whole entry): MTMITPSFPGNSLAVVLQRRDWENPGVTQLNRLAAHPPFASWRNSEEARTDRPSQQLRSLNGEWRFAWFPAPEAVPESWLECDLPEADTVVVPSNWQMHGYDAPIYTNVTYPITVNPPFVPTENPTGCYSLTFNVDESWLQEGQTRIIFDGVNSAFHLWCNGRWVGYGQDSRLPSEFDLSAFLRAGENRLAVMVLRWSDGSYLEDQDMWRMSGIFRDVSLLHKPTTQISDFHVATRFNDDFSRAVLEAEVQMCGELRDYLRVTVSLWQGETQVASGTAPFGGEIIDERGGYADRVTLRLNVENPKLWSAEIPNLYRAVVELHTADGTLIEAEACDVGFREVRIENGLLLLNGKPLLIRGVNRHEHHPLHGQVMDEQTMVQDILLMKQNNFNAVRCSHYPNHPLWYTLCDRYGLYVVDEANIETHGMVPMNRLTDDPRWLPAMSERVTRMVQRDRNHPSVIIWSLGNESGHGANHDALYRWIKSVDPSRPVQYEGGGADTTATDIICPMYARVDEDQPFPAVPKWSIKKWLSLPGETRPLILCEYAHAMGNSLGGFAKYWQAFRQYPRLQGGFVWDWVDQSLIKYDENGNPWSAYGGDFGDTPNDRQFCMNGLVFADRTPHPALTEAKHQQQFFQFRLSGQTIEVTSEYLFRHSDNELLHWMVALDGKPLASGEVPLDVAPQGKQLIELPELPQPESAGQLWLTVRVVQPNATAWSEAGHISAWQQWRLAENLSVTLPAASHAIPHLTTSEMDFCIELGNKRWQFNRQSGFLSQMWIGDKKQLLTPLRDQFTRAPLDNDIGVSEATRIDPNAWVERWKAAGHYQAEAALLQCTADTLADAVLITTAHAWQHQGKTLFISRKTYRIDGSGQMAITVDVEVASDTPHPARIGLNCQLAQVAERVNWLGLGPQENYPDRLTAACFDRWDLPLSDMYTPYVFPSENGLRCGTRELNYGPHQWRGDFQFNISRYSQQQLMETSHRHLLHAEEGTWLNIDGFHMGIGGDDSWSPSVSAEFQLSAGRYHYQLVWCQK
Sequence of Cytochrome P450 2C19 (P33261 whole entry): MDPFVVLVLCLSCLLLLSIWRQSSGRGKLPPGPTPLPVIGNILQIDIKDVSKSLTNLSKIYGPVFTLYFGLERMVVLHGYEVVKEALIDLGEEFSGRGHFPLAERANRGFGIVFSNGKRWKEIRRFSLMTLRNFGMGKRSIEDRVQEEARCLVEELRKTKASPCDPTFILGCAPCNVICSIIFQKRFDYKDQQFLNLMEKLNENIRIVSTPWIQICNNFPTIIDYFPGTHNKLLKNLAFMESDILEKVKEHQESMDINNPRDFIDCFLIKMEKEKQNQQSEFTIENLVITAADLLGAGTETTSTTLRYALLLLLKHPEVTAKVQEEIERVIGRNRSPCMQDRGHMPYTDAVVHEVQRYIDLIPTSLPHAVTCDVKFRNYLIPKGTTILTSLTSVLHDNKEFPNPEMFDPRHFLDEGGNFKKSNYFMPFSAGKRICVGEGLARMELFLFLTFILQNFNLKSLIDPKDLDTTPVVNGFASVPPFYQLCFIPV
Sequence of Cytochrome P450 2C9 (P11712 whole entry): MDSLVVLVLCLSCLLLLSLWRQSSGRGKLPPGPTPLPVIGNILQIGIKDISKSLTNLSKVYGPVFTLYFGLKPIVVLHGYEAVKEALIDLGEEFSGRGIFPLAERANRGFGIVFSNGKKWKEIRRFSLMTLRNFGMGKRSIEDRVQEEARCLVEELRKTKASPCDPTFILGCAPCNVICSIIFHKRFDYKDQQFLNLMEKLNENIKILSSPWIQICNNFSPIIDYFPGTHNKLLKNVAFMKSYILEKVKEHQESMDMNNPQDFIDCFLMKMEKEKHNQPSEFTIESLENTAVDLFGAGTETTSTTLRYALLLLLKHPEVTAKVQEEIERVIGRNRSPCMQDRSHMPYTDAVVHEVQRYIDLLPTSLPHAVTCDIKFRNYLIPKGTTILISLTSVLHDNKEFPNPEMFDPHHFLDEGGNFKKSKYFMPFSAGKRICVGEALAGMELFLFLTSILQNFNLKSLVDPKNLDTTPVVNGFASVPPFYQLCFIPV
Sequence of Cytochrome P450 3A4 (P08684 whole entry): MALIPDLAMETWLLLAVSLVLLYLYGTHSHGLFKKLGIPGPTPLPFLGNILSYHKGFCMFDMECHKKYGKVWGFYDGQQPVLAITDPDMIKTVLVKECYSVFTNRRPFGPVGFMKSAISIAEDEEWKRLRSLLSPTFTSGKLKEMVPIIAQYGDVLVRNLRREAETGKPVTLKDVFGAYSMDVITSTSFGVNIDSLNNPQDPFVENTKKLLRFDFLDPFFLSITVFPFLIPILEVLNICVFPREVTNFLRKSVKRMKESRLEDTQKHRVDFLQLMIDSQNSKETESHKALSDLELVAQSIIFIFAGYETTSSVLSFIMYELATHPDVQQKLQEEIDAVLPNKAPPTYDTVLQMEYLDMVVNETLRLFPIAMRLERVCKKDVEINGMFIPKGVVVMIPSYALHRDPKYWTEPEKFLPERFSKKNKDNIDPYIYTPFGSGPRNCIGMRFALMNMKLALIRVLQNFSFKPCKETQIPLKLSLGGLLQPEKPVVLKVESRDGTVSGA
Sequence of CAAX prenyl protease 2 (Q03530 whole entry): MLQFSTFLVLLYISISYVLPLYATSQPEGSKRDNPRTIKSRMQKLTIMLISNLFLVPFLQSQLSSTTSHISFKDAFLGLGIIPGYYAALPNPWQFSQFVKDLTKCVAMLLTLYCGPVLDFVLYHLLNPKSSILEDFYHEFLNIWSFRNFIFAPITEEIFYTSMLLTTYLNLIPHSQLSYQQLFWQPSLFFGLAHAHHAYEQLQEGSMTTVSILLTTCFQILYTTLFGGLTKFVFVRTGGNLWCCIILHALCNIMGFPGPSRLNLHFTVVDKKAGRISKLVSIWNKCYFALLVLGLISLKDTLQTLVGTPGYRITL

Structure (SMILES): O=S(=O)(c1ccccc1)N(CC(O)CN1CCCCC1)c1ccccc1 (configuration not stated)
- IC50 (Bcl-2-like protein 10): > 100 µM (inactive)

Structure (SMILES): COC(=O)c1[nH]c2ccc(C)cc2c1NC(=O)CCN1CCN(Cc2ccc3c(c2)OCO3)CC1
- IC50 (Bcl-2-like protein 10): > 100 µM (inactive)

Structure (SMILES): CCCCCCC(=O)NN/C=C1\C(=O)NC(=S)N(C(C)CC)C1=O (configuration not stated)
- IC50 (Beta-galactosidase): > 66.6 µM (inactive)
- EC50 [1]: 5.17 µM (active)
- EC50 (Streptokinase A): > 150 µM (not active)
- EC50 (Streptococcus): 9.29 µM (active)

Structure (SMILES): CN1CCN(c2ccc(NC(=O)c3ccc(-c4ccc(Cl)cc4)o3)cc2)CC1
- IC50 (cells): 3.04 µM (active)
- CC50 [2]: 17.2 µM (active)
- CC50 [3]: 17.6 µM (active)
- CC50 [4]: 8.12 µM (active)
- EC50 [5]: 0.0667 µM (active)

Structure (SMILES): O=C(CSc1nc2ccccc2s1)N1N=C(c2cccs2)CC1c1ccc(F)cc1 (configuration not stated)
- EC50 [6]: > 60 µM (not active)
- EC50 [7]: 1.06 µM (active)
- AC50 (CAAX prenyl protease 2): 12.1 µM (active)
- AC50 (Trypsin): 24.5 µM (active)

Structure (SMILES): Cc1cc(C)n(-c2nc(SCCN(C)C)c3c4c(sc3n2)CCCC4)n1
- AC50 (Cytochrome P450 2C9): 15.8 µM (inconclusive)
- IC50 (cells): 9.58 µM (active)
- CC50 [2]: 6.93 µM (active)
- EC50 [8]: 1.88 µM (active)
- EC50 [9]: > 120 µM (not active)
- CC50 [3]: 13.5 µM (active)
- AC50 (Cytochrome P450 2C19): 31.6 µM (inconclusive)
- CC50 [4]: 19.4 µM (active)
- AC50 (Cytochrome P450 3A4): 17.8 µM (inconclusive)
- EC50 [10]: > 120 µM (not active)
- EC50 [11]: 56 µM (active)
- EC50 (H4): > 120 µM (not active)
